These results are taken from ChEMBL document CHEMBL5729337, “Substituted eneoxindoles and uses thereof” (2022).

This assay has as its target Mitogen-activated protein kinase kinase kinase kinase 1 (Homo sapiens, UniProt Q92918). In words: Biochemical Assay: The enzymatic activity of human HPK1 (MAP4K1) was monitored in a biochemical assay in the presence or absence of compounds and using a synthetic peptide substrate. An increase in phosphorylation of the peptide by HPK1 was indicative of its kinase activity.Recombinant HPK1 kinase domain produced via baculovirus infection of insect cells was obtained from Proteros (Proteros Biostructures #PR-0322) and was pre-activated in the presence of 2 mM ATP (Sigma-Aldrich, cat #GE27-2056-01) and 2 mM magnesium chloride for 16 hours at 4° C. The protein reaction mixture was then loaded to a desalting column (Thermo Fisher Scientific, Cat #89889) to remove excess ATP. HPK1 was eluted with buffer containing 20 mM Tris (2-Amino-2-(hydroxymethyl)propane-1,3-diol) pH 8.0, 150 mM NaCl, 2 mM dithiothreitol and 5% glycerol, and was frozen at −80° C. for later use. HPK1 dual phosphorylation was confirmed by mass spectrometry.

Sequence of Mitogen-activated protein kinase kinase kinase kinase 1 (Q92918 whole entry, the tested form may be a part): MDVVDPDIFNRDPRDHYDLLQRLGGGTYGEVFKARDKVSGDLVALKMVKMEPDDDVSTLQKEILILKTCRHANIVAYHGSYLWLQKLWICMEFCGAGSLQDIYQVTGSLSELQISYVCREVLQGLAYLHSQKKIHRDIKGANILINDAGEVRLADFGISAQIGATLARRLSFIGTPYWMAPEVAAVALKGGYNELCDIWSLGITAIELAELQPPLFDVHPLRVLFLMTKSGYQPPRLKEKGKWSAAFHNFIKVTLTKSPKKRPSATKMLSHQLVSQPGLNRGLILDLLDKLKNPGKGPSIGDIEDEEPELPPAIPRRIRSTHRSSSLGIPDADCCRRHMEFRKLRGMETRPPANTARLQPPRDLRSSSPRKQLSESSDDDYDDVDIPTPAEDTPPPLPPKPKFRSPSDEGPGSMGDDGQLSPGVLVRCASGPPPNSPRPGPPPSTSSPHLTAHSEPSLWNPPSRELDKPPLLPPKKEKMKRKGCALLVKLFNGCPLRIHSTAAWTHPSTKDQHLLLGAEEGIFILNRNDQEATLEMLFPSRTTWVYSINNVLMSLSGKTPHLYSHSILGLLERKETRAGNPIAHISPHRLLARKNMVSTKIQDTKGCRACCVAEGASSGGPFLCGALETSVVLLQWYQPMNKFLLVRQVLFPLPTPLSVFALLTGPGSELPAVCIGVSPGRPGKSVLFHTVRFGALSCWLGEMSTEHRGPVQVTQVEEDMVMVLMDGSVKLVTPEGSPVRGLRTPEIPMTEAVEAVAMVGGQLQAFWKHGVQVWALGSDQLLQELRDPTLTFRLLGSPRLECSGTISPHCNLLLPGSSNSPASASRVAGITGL

In general, IC50 refers to the point on the concentration scale where inhibition reaches its midpoint. In the case of `Cc1c(-c2cc(F)c3c(c2)/C(=C/c2cc4cnccc4[nH]2)C(=O)N3)cnc2c1NCCO2`, the IC50 was found to be 0.1 nM.
